One experiment addresses R361A mutant NP (Influenza A virus, UniProt P15682, R361A).
Another experiment has as its system influenza A virus. Particulars: cited from earlier work.

SMILES strings stand for the structures.

Take `COc1ccc2cc([C@H](C)C(=O)O)ccc2c1` [Naproxen, naproxen]: at R361A mutant NP, the “stabilization of R361A monomers” value was “No stabilization”.
Turning to `CCOC(=O)C1=C[C@@H](OC(CC)CC)[C@H](NC(C)=O)[C@@H](N)C1` [tamiflu], in the experiment with influenza A virus, the “emergence of resistant virus” value is listed as “generated after four passages”.

These data come from PMC4548311 (Journal of Biomolecular Structure & Dynamics, 2014).
